According to patent US20060211606A1, “Peptides” (priority 2005, published 2006):
*1 amine or outer side, *2 acyl side, *3 side chain or, on linkers, in order; H or OH if unused. [ ]: non-standard residue; d: D form. PEG (Jeffamine) = not defined here; Suc = O=C(CCC(=O)[*:2])[*:1]

Key:
[1] = tested on: dystrophic muscles of the mdx mouse; experiment: Intramuscular injection into dystrophic muscle of mdx mice, tetanic force; type: in vivo; details: i.m. two per week for three weeks
Protocol: Greater increases, of up to around 35% (FIGS. 3A, 3B), were recorded for intramuscular injections (two per week for three weeks) in the dystrophic muscles of the mdx mouse, which has the same type of mutation as that in human Duchenne muscular dystrophy.

[2] = tested on: infarcted ovine heart; experiment: Ovine myocardial infarction, intracoronary injection, ejection fraction by echocardiography; type: in vivo; details: ovine MI; intracoronary injection 15 minutes after MI; ejection fraction day 6 vs day 1
From the text: A myocardial infarction (MI) was induced in ovine hearts by catheterising a marginal branch of the circumflex coronary artery and injecting a small bolus of microspheres to induce localised ischemia. […] As a control, mature liver-type IGF-I was used.

[3] = tested on: normal craniofacial (masseter) primary cultures; experiment: Desmin positive cell proliferation, normal craniofacial (masseter) primary cultures; type: cell-based, human; details: for desmin positive cells as percentage of total cells: peptide alone, 10 ng/ml, serum-free defined media, mean±s.d.
From the text: (§1) Human primary muscle cell cultures were isolated as previously described [Lewis et al., 2000; Sinanan et al., 2004]. Briefly, following informed consent, craniofacial (masseter) muscle biopsies were obtained from healthy adult and CMD patients during elective surgery at the Eastman and Middlesex Hospitals, London, UK. Human lower limb (vastus lateralis) muscle samples were obtained from consenting, adult healthy, FSHD and ALS patients by needle biopsy under local anaesthesia at the Royal Free Hospital, London, UK. Biopsies were pooled from several patients with the same disorder to obtain sufficient cell numbers in the primary cultures. These were washed with antibiotic (penicillin, 100 U/ml; streptomycin, 100 μg/ml; fungizone, 2.5 μg/ml; Invitrogen) supplemented DMEM (high glucose; Invitrogen), scissor-minced and tissue fragments plated into 0.2% gelatin-coated (Sigma-Aldrich) T150 cm^2 culture flasks (Helena Biosciences). Explant cultures were incubated in serum-containing Growth Media (sGM), composed of DMEM, 20% FCS (PAA Laboratories), penicillin (100 U/ml) and streptomycin ([…]) (Invitrogen), and maintained at 37° C. in humidified 95% air with 5% CO2. The first wave of migration of mononuclear cells from the explant was designated the […]-wave and this population was used throughout this study. Migratory human muscle cell were enzymatically harvested using trypsin-EDTA (Invitrogen) and subcultured in sGM until 70-80% confluency. Passage number x (Px), was defined as the xth sequential harvest of subconfluent cells. All experiments were performed using P3-5 cohorts. The expanded cells were then stored under cryogenic conditions until they were used in the experiments described below. At least 6 runs were made for each of the treatments used for each diseased muscle culture as well as for the two types of healthy muscle.
(§2) Assessment of the number of myogenic precursors was performed as described previously (Sinanan et al., 2004). Cells were re-plated on gelatin-coated (0.2%) 13 mm coverslips at an initial density of 4.5×10^3 cells cm^−2. […]
(§3) At the appropriate time-points, cells were fixed with methanol for 10 min (−20° C.), followed by detergent permeabilization with 0.5% Triton-X100 for 10-15 min. […] Cell-associated fluorescence and morphology, were visualized by epi-fluorescence and Leica Modulation Contrast (LMC) microscopy respectively, using an inverted Leica DMIRB microscope equipped with Leica FW4000 image processing software. For the proliferation assay, all blue and green fluorescent positive cells were counted in a field. […]

[4] = tested on: normal lower limb (quadriceps) primary cultures; experiment: Desmin positive cell proliferation, normal lower limb (quadriceps) primary cultures; type: cell-based, human; details: for desmin positive cells as percentage of total cells: peptide alone, 10 ng/ml, mean±s.d.
From the text: as §1, with “The expanded cells were then stored under cryogenic conditions until they were used in the experiments described below. At least 6 runs were made for each of the treatments used for each diseased muscle culture as well as for the two types of healthy muscle.” left out
as §3

[5] = tested on: primary cultures derived from congenital muscular dystrophy (CMD); experiment: Desmin positive cell proliferation, primary cultures from congenital muscular dystrophy (CMD); type: cell-based, human; details: for desmin positive cells as percentage of total cells: peptide alone, 10 ng/ml, mean±s.d.
From the text: as §1, §2, §3

[6] = tested on: muscle cells from amyotrophic lateral sclerosis (ALS); experiment: Desmin positive cell proliferation, muscle cells from amyotrophic lateral sclerosis (ALS); type: cell-based, human; details: for desmin positive cells as percentage of total cells: peptide alone, 10 ng/ml, mean±s.d.
From the text: as §1, §2, §3

[7] = tested on: muscle cells from FSHD; experiment: Desmin positive cell proliferation, muscle cells from FSHD; type: cell-based, human; details: for desmin positive cells as percentage of total cells: peptide alone, 10 ng/ml, mean±s.d.
From the text: as §1, with “The expanded cells were then stored under cryogenic conditions until they were used in the experiments described below. At least 6 runs were made for each of the treatments used for each diseased muscle culture as well as for the two types of healthy muscle.” left out
as §3

[8] = stabilised peptide in combination with IGF-I

IGF-I: IGF-I receptor binding domain encoded by Exons 3 and 4, common to all splice variants, approximately 70 amino acids [reference compound]
percentage change in tetanic force (increase in muscle strength) [1]: around 5%
effect on percentage of viable myocardium and ejection fraction [2]: much smaller effect
desmin positive cells as percentage of total cells ([3]; normal craniofacial): 58.4±4.2%
desmin positive cells as percentage of total cells [4]: 47.1±3.5%
desmin positive cells as percentage of total cells [5]: 13.2±1.7%
desmin positive cells as percentage of total cells [6]: 4.7±1.4%
desmin positive cells as percentage of total cells [7]: 14.1±1.6%

stabilised peptide: SEQ ID NO: 15 with D-Arginine at positions 14 and 15, N-terminus attached to PEG (Jeffamine) via succinic acid bridge, amidated at C-terminus ({PEG (Jeffamine)-Suc}-YQPPSTNKNTKSQ[dR][dR]KGSTFEEHK-NH2; reading uncertain)
percentage change in tetanic force (increase in muscle strength) [1]: ≤ 35%
effect on percentage of viable myocardium and ejection fraction [2]: markedly increase the percentage of viable myocardium and the ejection fraction
desmin positive cells as percentage of total cells ([3]; normal craniofacial): 68.8±3.9%
desmin positive cells as percentage of total cells, IGF-I added ([3]; normal craniofacial, stabilised peptide in combination with IGF-I (10 ng/ml each)): 59.5±4.2%
desmin positive cells as percentage of total cells, plus anti-IGF-I receptor antibody Ab-1 ([3]; normal muscle, stabilised peptide plus Ab-1): 71.1±6.2%
desmin positive cells as percentage of total cells [4]: 57.9±3.2%
desmin positive cells as percentage of total cells, IGF-I added [4, 8]: 38.8±0.6%
desmin positive cells as percentage of total cells [5]: 17.5±1.6%
desmin positive cells as percentage of total cells, IGF-I added [5, 8]: 13.1±1.2%
desmin positive cells as percentage of total cells, plus anti-IGF-I receptor antibody Ab-1 ([5]; stabilised peptide plus Ab-1): 16.7±1.8%
desmin positive cells as percentage of total cells [6]: 7.2±0.8%
desmin positive cells as percentage of total cells, IGF-I added [6, 8]: 5.3±1.0%
desmin positive cells as percentage of total cells, plus anti-IGF-I receptor antibody Ab-1 ([6]; stabilised peptide plus Ab-1): 6.5±0.8%
desmin positive cells as percentage of total cells [7]: 20.4±2.1%
desmin positive cells as percentage of total cells, IGF-I added [7, 8]: 14.5±1.4%
